Experimental data reported in patent US11559538B2, “Substituted 1,2-oxaborolan-2-ols as PDE4 inhibitors” (Pfizer Inc., priority 2018, dated 2023).
Read-outs that look alike come from different tables or passages of the source.

Columns and labels:
IFNγ = test: Cytokine assay: IFNγ release from PHA-L stimulated human PBMCs; assay type: cell-based
Procedure, shortened: (§1)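 IC50 values came from four-parameter logistic fits of supernatant cytokine, which was quantified by HTRF. Mitogen stimulation used PHA-L at a final 3.5 μg/mL on about 250,000 thawed human PBMCs per well, in serum-containing RPMI medium with 0.25% DMSO, for 48 h.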

[1] = target: PDE4B (aa 152-484, Uniprot ID Q07343) (Homo sapiens (Human), UniProt Q07343); test: PDE4 SPA assay (scintillation proximity assay); assay type: biochemical; details: read-out: PDE4B2 IC50
PDE4B (aa 152-484, Uniprot ID Q07343), sequence (Q07343 324-656): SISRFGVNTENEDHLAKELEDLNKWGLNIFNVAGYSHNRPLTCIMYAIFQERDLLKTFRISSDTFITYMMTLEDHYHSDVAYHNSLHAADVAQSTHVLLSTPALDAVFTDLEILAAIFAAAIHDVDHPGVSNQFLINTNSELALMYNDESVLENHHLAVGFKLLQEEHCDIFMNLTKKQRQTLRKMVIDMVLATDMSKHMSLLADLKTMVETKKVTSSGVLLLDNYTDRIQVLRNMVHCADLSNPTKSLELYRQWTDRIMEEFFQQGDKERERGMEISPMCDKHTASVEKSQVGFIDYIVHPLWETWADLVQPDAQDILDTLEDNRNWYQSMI
Procedure, shortened: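 PDE4B (aa 152-484, ~81.6 pM) preincubated ~10 min with compound, then 1 μM ³H/unlabeled cAMP added in Tris pH 7.5, 1.3 mM MgCl2, 0.004% Brij 35, ~2% DMSO; 30 min at RT. Product captured on SPA beads and counted; IC50 by four-parameter logistic fit.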

IL-13 = test: Cytokine assay: IL-13 release from PHA-L stimulated human PBMCs; assay type: cell-based; details: read-out: IL13 IC50
Procedure, shortened: as §1

IL-4 = test: Cytokine assay: IL-4 release from PHA-L stimulated human PBMCs; assay type: cell-based; details: read-out: IL4 IC50
Procedure, shortened: as §1

| SMILES | IC50 (IFNγ; Homo sapiens, PBMC) [nM] | IC50 [1] [nM] | IC50 (IL-13; Homo sapiens, PBMC) [nM] | IC50 (IL-4; Homo sapiens, PBMC) [nM] | IC50 (IFNγ) [nM] | IC50 (IL-13) [nM] | IC50 (IL-4) [nM] |
| --- | --- | --- | --- | --- | --- | --- | --- |
| COc1ccc(-c2cccc(C3COB(O)C3)c2)cc1OC (centres unmarked) [Example 232, 4-(3′,4′-dimethoxy-[1,1′-biphenyl]-3-yl)-1,2-oxaborolan-2-ol] | 17.9 | 4.65 | 583 | 197 | – | – | – |
| COc1ccc(-c2cccc(C3COB(O)C3)n2)c(F)c1OC (centres unmarked) [Example 162, 4-(6-(2-fluoro-3,4-dimethoxyphenyl)pyridin-2-yl)-1,2-oxaborolan-2-ol] | 8.29 | 14.5 | 975 | 56.3 | – | – | – |
| CCOc1c(OC)ccc(-c2cccc(C3COB(O)C3)c2)c1C#N (single isomer, unassigned; enantiomer 2) [Example 192, 3-ethoxy-3′-(2-hydroxy-1,2-oxaborolan-4-yl)-4-methoxy-[1,1′-biphenyl]-2-carbonitrile, enantiomer 2] | 5.43 | 2.15 | 1500 | 14.6 | – | – | – |
| COc1ccc(-c2cncc(C3COB(O)C3)c2)cc1OC(C)C (single isomer, unassigned; enantiomer 2) [Example 190, 4-(5-(3-isopropoxy-4-methoxyphenyl)pyridin-3-yl)-1,2-oxaborolan-2-ol, enantiomer 2] | – | 1.43 | – | – | 5.01 | 1480 | 40.3 |
| CCCOc1c(OC)ccc(-c2cncc(C3COB(O)C3)c2)c1F (centres unmarked) [Example 81, 4-(5-(2-fluoro-4-methoxy-3-propoxphenyl)pyridin-3-yl)-1,2-oxaborolan-2-ol] | 1.62 | 2.36 | – | – | – | 858 | 54.4 |
| CCCOc1cccc(-c2cncc(C3COB(O)C3)c2)c1 (single isomer, unassigned) [Example 146, 4-(5-(3-propoxyphenyl)pyridin-3-yl)-1,2-oxaborolan-2-ol] | 23.8 | 1.21 | 757 | 24.4 | – | – | – |
| CCCOc1cc(-c2cc(C3COB(O)C3)cc(CO)n2)ccc1OC (single isomer, unassigned; enantiomer 1) [Example 180, 4-(2-(hydroxymethyl)-6-(4-methoxy-3-propoxyphenyl)pyridin-4-yl)-1,2-oxaborolan-2-ol, enantiomer 1] | 6.65 | 3.01 | 1290 | 6.33 | – | – | – |
| COc1ccc(-c2cncc(C3COB(O)C3)c2)c(F)c1OC (centres unmarked) [Example 107, 4-(5-(2-fluoro-3,4-dimethoxyphenyl)pyridin-3-yl)-1,2-oxaborolan-2-ol] | 4.17 | 2.41 | – | 27.1 | – | 613 | – |
| CCOc1cc(C2COB(O)C2)nc(-c2ccc(OC)c(OCC)c2)n1 (single isomer, unassigned; enantiomer 1) [Example 223, 4-(6-ethoxy-2-(3-ethoxy-4-methoxyphenyl)pyrimidin-4-yl)-1,2-oxaborolan-2-ol, enantiomer 1] | 22.5 | 6.67 | 2690 | 30.9 | – | – | – |
| CCOc1c(OC)ccc(-c2cccc(C3COB(O)C3)c2)c1F (centres unmarked) [Example 166, 4-(3′-ethoxy-2′-fluoro-4′-methoxy-[1,1′-biphenyl]-3-yl)-1,2-oxaborolan-2-ol] | 5.46 | 0.97 | 1010 | 49.2 | – | – | – |
| COc1ccc(-c2cncc(C3COB(O)C3)c2)cc1OC (centres unmarked) [Example 32, 4-(5-(3,4-dimethoxyphenyl)pyridin-3-yl)-1,2-oxaborolan-2-ol] | 8.47 | 13 | 2250 | 64 | – | – | – |
| CCOc1c(OC)ccc(-c2cncc(C3COB(O)C3)c2)c1F (single isomer, unassigned) [Example 74, 4-(5-(3-ethoxy-2-fluoro-4-methoxyphenyl)pyridin-3-yl)-1,2-oxaborolan-2-ol] | 2.71 | 3.04 | 768 | 10.9 | – | – | – |
| CCCOc1c(OC)ccc(-c2cccc(C3COB(O)C3)n2)c1C#N (single isomer, unassigned) [Example 87, 6-(6-(2-hydroxy-1,2-oxaborolan-4-yl)pyridin-2-yl)-3-methoxy-2-propoxybenzonitrile] | 3.02 | 5.03 | 444 | 19.1 | – | – | – |
| CCOc1ccc(-c2cncc(C3COB(O)C3)c2)cc1OC (centres unmarked) [Example 187, 4-(5-(4-ethoxy-3-methoxyphenyl)pyridin-3-yl)-1,2-oxaborolan-2-ol] | 8.84 | 4.28 | 1420 | 41.1 | – | – | – |
| CCCOc1nc(-c2cccc(C3COB(O)C3)c2)ccc1OC (centres unmarked) [Example 156, 4-(3-(5-methoxy-6-propoxypyridin-2-yl)phenyl)-1,2-oxaborolan-2-ol] | 1.56 | 0.82 | 901 | 127 | – | – | – |
| CCCOc1cc(-c2nc(OC)cc(C3COB(O)C3)n2)ccc1OC (single isomer, unassigned; enantiomer 2) [Example 225, (−) 4-(6-methoxy-2-(4-methoxy-3-propoxphenyl)pyrimidin-4-yl)-1,2-oxaborolan-2-ol, enantiomer 2] | 4.36 | 3.79 | 2380 | 21.2 | – | – | – |
| CCOc1ccc(-c2cncc(C3COB(O)C3)c2)cc1OCC (centres unmarked) [Example 96, 4-(5-(3,4-diethoxyphenyl)pyridin-3-yl)-1,2-oxaborolan-2-ol] | 5.27 | 1.69 | 965 | 48.9 | – | – | – |
| CSc1ccc(-c2cncc(C3COB(O)C3)c2)cc1OC1CCCC1 (centres unmarked) [Example 99, 4-(5-(3-(cyclopentyloxy)-4-(methylthio)phenyl)pyridin-3-yl)-1,2-oxaborolan-2-ol] | 9.42 | 1.37 | 957 | 44.3 | – | – | – |
| CCCOc1cc(-c2cc(CO)nc(C3COB(O)C3)n2)ccc1OC (centres unmarked) [Example 198, 4-(4-(hydroxymethyl)-6-(4-methoxy-3-propoxyphenyl)pyrimidin-2-yl)-1,2-oxaborolan-2-ol] | 4.85 | 14.3 | 1580 | 14.2 | – | – | – |
| COc1ccc(-c2cncc(C3COB(O)C3)n2)cc1OC1CCCC1 (centres unmarked) [Example 125, 4-(6-(3-(cyclopentyloxy)-4-methoxyphenyl)pyrazin-2-yl)-1,2-oxaborolan-2-ol] | 2.43 | 1.7 | 577 | 11.3 | – | – | – |
| COc1ccc(-c2cncc(C3COB(O)C3)c2)cc1OC1CC1 (centres unmarked) [Example 36, 4-(5-(3-cyclopropoxy-4-methoxyphenyl)pyridin-3-yl)-1,2-oxaborolan-2-ol] | 1.27 | 0.98 | 476 | 5.25 | – | – | – |
| CCCOc1cccc(-c2cncc(C3COB(O)C3)c2)c1 (centres unmarked) [Example 145, 4-(5-(3-propoxphenyl)pyridin-3-yl)-1,2-oxaborolan-2-ol] | 52.1 | 6.77 | 2240 | 103 | – | – | – |
| CCCOc1cc(-c2nc(OCCO)cc(C3COB(O)C3)n2)ccc1OC (single isomer, unassigned; enantiomer 1) [Example 196, (−) 4-(6-(2-hydroxyethoxy)-2-(4-methoxy-3-propoxyphenyl)pyrimidin-4-yl)-1,2-oxaborolan-2-ol, enantiomer 1] | 0.81 | 0.34 | 1540 | 0.29 | – | – | – |
| CCOc1c(OC)cc(F)c(-c2cncc(C3COB(O)C3)c2)c1F (single isomer, unassigned; enantiomer 1) [Example 164, (−) 4-(5-(3-ethoxy-2,6-difluoro-4-methoxyphenyl)pyridin-3-yl)-1,2-oxaborolan-2-ol, enantiomer 1] | 7.87 | 5.58 | 986 | 41.1 | – | – | – |
| CCCOc1nc(-c2cc(C3COB(O)C3)cnc2C)ccc1OC (single isomer, unassigned; enantiomer 1) [Example 231, (−) 4-(5-methoxy-2′-methyl-6-propoxy-[2,3′-bipyridin]-5′-yl)-1,2-oxaborolan-2-ol, enantiomer 1] | 1.72 | 1.98 | 2950 | 1.25 | – | – | – |
| COc1ccc(-c2cncc(C3COB(O)C3)c2)cc1OC (single isomer, unassigned; enantiomer 2) [Example 221, 4-(5-(3,4-dimethoxyphenyl)pyridin-3-yl)-1,2-oxaborolan-2-ol, enantiomer 2] | – | 2.21 | – | – | 9.35 | 2430 | 47.4 |
| CCCOc1c(OC)ccc(-c2cncc(C3COB(O)C3)n2)c1F (single isomer, unassigned; enantiomer 1) [Example 216, 4-(6-(2-fluoro-4-methoxy-3-propoxyphenyl)pyrazin-2-yl)-1,2-oxaborolan-2-ol, enantiomer 1] | 1.94 | 4.05 | 2860 | 19.6 | – | – | – |
| COc1ccc(-c2cccc(C3COB(O)C3)n2)c(C#N)c1OC1CCCC1 (centres unmarked) [Example 226, 2-(cyclopentyloxy)-6-(6-(2-hydroxy-1,2-oxaborolan-4-yl)pyridin-2-yl)-3-methoxybenzonitrile] | 17.8 | 8.72 | 2520 | 24.7 | – | – | – |
| CCCOc1cc(-c2nc(CO)cc(C3COB(O)C3)n2)ccc1OC (centres unmarked) [Example 76, 4-(6-(hydroxymethyl)-2-(4-methoxy-3-propoxyphenyl)pyrimidin-4-yl)-1,2-oxaborolan-2-ol] | – | 10 | – | – | 2.17 | 403 | 5.75 |
